Results on twelve compounds are retold here after patent US5792780A, “Azole compounds, their production and use” (Takeda Chemical Industries, Ltd., priority 1993, dated 1998).

Test [1] has as its system Candida albicans TA. In words: protective effect against experimental infection in mice (survival rate 7 days after infection). To be noted: po, 168 h, survival 7 days after infection. Format: in vivo, Crj:CDF1 mice. As for the experimental part: Test Method: Five-week-old Crj:CDF1 mice were inoculated with the minimum lethal dose of Candida albicans TA intravenously. The test compound was suspended in a solution of 0.2% or 0.5% sodium carboxymethylcellulose (CMC). The suspension was administered orally once immediately after infection. The activity was expressed in terms of ED50 values calculated by the Reed and Muench method from the survival rate 7 days after infection.
Test Method: Five-week-old Crj:CDF1 mice were inoculated with the minimum lethal dose of Candida albicans TA intravenously. The test compound was suspended in a solution of 0.5% sodium carboxymethylcellulose (CMC). The suspension was administered orally once immediately after infection. The activity was expressed in terms of ED50 values calculated by the Reed and Muench method from the survival rate 7 days after infection.

Test [2] relates to Aspergillus fumigatus IFO 6344. In words: growth inhibition zone, paper disc agar diffusion. It counts as cell-based. To be noted: IFO6344, 48 h, Medium A, 1000 μg/ml, 28° C., two days, read-out: Diameter of growth inhibition zone. How it is done:
(§1) Evaluation of the antifungal activities of the compound of the present invention was conducted by the following method: a sheet of filter paper disc (manufactured by Toyo Seisakusho, 8 mm in diameter) soaked in a 1000 μg/ml solution of a compound of the present invention in methanol was placed on an agar plate containing various fungi, which was incubated at 28° C. for two days, and the diameter of the growth inhibition zone around the filter paper disc was measured. The following culture media were used:
(§2) A: yeast nitrogen base agar medium (pH 7.0)
(§3) B: peptone-yeast extract-glucose agar medium (pH 7.0)
In general terms: Agar diffusion results depend on both activity and mobility in agar.

For test [3], the system named is Trichophyton rubrum IFO 5467. Nature of the test: growth inhibition zone, paper disc agar diffusion. Format: cell-based. To be noted: IFO5467, 48 h, Medium B, 1000 μg/ml, 28° C., two days, read-out: Diameter of growth inhibition zone. How it is done: as §1, §2, §3
For test [4], the system named is Cryptococcus neoformans IFO 0410. In words: growth inhibition zone, paper disc agar diffusion. Format: cell-based. The settings on record: IFO0410, 48 h, Medium A, 1000 μg/ml, 28° C., two days, read-out: Diameter of growth inhibition zone. As for the experimental part: as §1, §2, §3
Test [5] has as its system Candida albicans IFO 0583. Nature of the test: growth inhibition zone, paper disc agar diffusion. To be noted: IFO0583, 48 h, 1000 μg/ml, 28° C. Format: cell-based. How it is done: as §1, §2, §3
In test [6] the test system is Candida utilis IFO 0619. In words: growth inhibition zone, paper disc agar diffusion. The settings on record: Williopsis jadinii, IFO0619, 48 h, Medium A, 1000 μg/ml, 28° C., two days, read-out: Diameter of growth inhibition zone. Format: cell-based. How it is done: as §1, §2, §3
Test [7] has as its system Microsporum gypseum IFO 6076. Nature of the test: growth inhibition zone, paper disc agar diffusion. It counts as cell-based. The settings on record: Nannizzia gypsea, IFO6076, 48 h, Medium B, 1000 μg/ml, 28° C., two days, read-out: Diameter of growth inhibition zone. How it is done: as §1, §2, §3
Test [8] concerns Aspergillus niger IFO 4066. Nature of the test: growth inhibition zone, paper disc agar diffusion. Format: cell-based. The settings on record: IFO4066, 48 h, Medium A, 1000 μg/ml, 28° C., two days, read-out: Diameter of growth inhibition zone. As for the experimental part: as §1, §2, §3
Test [9] has as its system Trichophyton mentagrophytes IFO 7522. In words: growth inhibition zone, paper disc agar diffusion. It counts as cell-based. To be noted: IFO7522, 48 h, Medium B, 1000 μg/ml, 28° C., two days, read-out: Diameter of growth inhibition zone. How it is done:
as §1, §2, §3

Setting [10] is: Table 7, P.O. once immediately after infection, 0.2% CMC.
Setting [11] is: Table 5, Medium A, two days, read-out: Diameter of growth inhibition zone.
[12] abbreviates: Table 6, Medium A, two-day culture, read-out: Diameter of growth-inhibition zone.
Where [13] appears, read: Table 8, P.O. once immediately after infection, 0.5% CMC.

Like-named read-outs stand apart in the source and are kept apart here.

On to `C[C@@H](N1CCN(c2ccc(OC(F)(F)F)cc2)C1=O)[C@](O)(Cn1cncn1)c1ccc(F)cc1F` [Compound 1, 1-[(1R,2R)-2-(2,4-difluorophenyl)-2-hydroxy-1-methyl-3-(1H-1,2,4-triazol-1-yl)propyl]-3-(4-trifluoromethoxyphenyl)-2-imidazolidinone], for which the 50% effect level in [1] (setting [10]) (ED50) was put at a dose of 1.4 mg/kg. In addition, the zone of inhibition at 1000 µg/mL in test [2] is 31 mm; in test [3], 47 mm; in [4], 27 mm; in test [5] (setting [11]) it was 36 mm; in [6] it was 25 mm; in test [7], 49 mm. The zone of inhibition at 1000 µg/mL in test [8] is 24 mm; in [9], 48 mm.

With `C[C@@H](N1CCN(c2ccc(Cl)cc2)C1=O)[C@](O)(Cn1cncn1)c1ccc(F)cc1F` [Compound 10, 1-(4-chlorophenyl)-3-[(1R,2R)-2-(2,4-difluorophenyl)-2-hydroxy-1-methyl-3-(1H-1,2,4-triazol-1-yl)propyl]-2-imidazolidinone], in [1] (setting [10]), the ED50 was determined as 1.8 mg/kg. Further, the zone of inhibition at 1000 µg/mL in [5] (setting [12]) is 42 mm.

The compound `C[C@@H](N1CCN(c2ccc(OCC(F)(F)F)cc2)C1=O)[C@](O)(Cn1cncn1)c1ccc(F)cc1F` [Compound 9, 1-[(1R,2R)-2-(2,4-difluorophenyl)-2-hydroxy-1-methyl-3-(1H-1,2,4-triazol-1-yl)propyl]-3-[4-(2,2,2-trifluoroethoxy)phenyl]-2-imidazolidinone] gave an ED50 in [1] (setting [10]) of 0.65 mg/kg. Besides, in test [5] (setting [12]), the zone of inhibition at 1000 µg/mL was 41 mm.

With `C[C@@H](N1CCN(c2ccc(OC(F)(F)C(F)F)cc2)C1=O)[C@](O)(Cn1cncn1)c1ccc(F)cc1F` [Compound 7, 1-[(1R,2R)-2-(2,4-difluorophenyl)-2-hydroxy-1-methyl-3-(1H-1,2,4-triazol-1-yl)propyl]-3-[4-(1,1,2,2-tetrafluoroethoxy)phenyl]-2-imidazolidinone], the ED50 in test [1] (setting [10]) came out at 0.65 mg/kg; in [1] (setting [13]), 0.35 mg/kg. Further, in test [5] (setting [12]), the zone of inhibition at 1000 µg/mL was 35 mm.

In test [1] (setting [13]), `C[C@@H](N1CCN(c2ccc(OCC(F)(F)C(F)F)cc2)C1=O)[C@](O)(Cn1cncn1)c1ccc(F)cc1F` [Compound 6, 1-[(1R,2R)-2-(2,4-difluorophenyl)-2-hydroxy-1-methyl-3-(1H-1,2,4-triazol-1-yl)propyl]-3-[4-(2,2,3,3-tetrafluoropropoxy)phenyl]-2-imidazolidinone] yielded an ED50 of 0.71 mg/kg. The zone of inhibition at 1000 µg/mL in [5] (setting [12]) turned out to be 36 mm.

`C[C@@H](N1CCN(c2ccc(F)cc2F)C1=O)[C@](O)(Cn1cncn1)c1ccc(F)cc1F` [Compound 2, 1-[(1R,2R)-2-(2,4-difluorophenyl)-2-hydroxy-1-methyl-3-(1H-1,2,4-triazol-1-yl)propyl]-3-(2,4-difluorophenyl)-2-imidazolidinone]: the zone of inhibition at 1000 µg/mL came out at 30 mm in [2]; 50 mm in test [3]; 31 mm in [4]; 45 mm in [5] (setting [11]); 29 mm in test [6]; 41 mm in test [7]. Moreover, the zone of inhibition at 1000 µg/mL in test [8] was found to be 27 mm; in test [9], 40 mm.

With `C[C@@H](N1CCN(c2ccc(C(F)(F)F)cc2)C1=O)[C@](O)(Cn1cncn1)c1ccc(F)cc1F` [Compound 4, 1-[(1R,2R)-2-(2,4-difluorophenyl)-2-hydroxy-1-methyl-3-(1H-1,2,4-triazol-1-yl)propyl]-3-(4-trifluoromethylphenyl)-2-imidazolidinone], the ED50 in test [1] (setting [10]) came out at 0.65 mg/kg. Also, the zone of inhibition at 1000 µg/mL stood at 34 mm in [2]; 43 mm in test [3]; 29 mm in test [4]; 41 mm in test [5] (setting [11]); 31 mm in test [6]; 42 mm in [7]. Moreover, the zone of inhibition at 1000 µg/mL came out at 26 mm in test [8] and 39 mm in test [9].

Turning to `C[C@@H](N1CCN(c2ccc(F)cc2)C1=O)[C@](O)(Cn1cncn1)c1ccc(F)cc1F` [Compound 5, 1-[(1R,2R)-2-(2,4-difluorophenyl)-2-hydroxy-1-methyl-3-(1H-1,2,4-triazol-1-yl)propyl]-3-(4-fluorophenyl)-2-imidazolidinone], in test [5] (setting [12]), the zone of inhibition at 1000 µg/mL is 47 mm.

For `C[C@@H](N1CC(=O)N(c2ccc(OCC(F)(F)C(F)F)cc2)CC1=O)[C@](O)(Cn1cncn1)c1ccc(F)cc1F` [Compound 11, 1-[(1R,2R)-2-(2,4-difluorophenyl)-2-hydroxy-1-methyl-3-(1H-1,2,4-triazol-1-yl)propyl]-4-[4-(2,2,3,3-tetrafluoropropoxy)phenyl]-2,5-piperazinedione], the zone of inhibition at 1000 µg/mL in [5] (setting [12]) was found to be 31 mm.

As for `C[C@@H](N1CC(=O)N(c2ccc(F)cc2F)C1=O)[C@](O)(Cn1cncn1)c1ccc(F)cc1F` [Compound 3, 1-[(1R,2R)-2-(2,4-difluorophenyl)-2-hydroxy-1-methyl-3-(1H-1,2,4-triazol-1-yl)propyl]-3-(2,4-difluorophenyl)-2,4-imidazolidinedione], the ED50 in test [1] (setting [10]) was 2 mg/kg. Moreover, the zone of inhibition at 1000 µg/mL in test [5] (setting [12]) was 41 mm.

`C[C@@H](N1CCN(c2ccc(OCC(F)(F)C(F)(F)F)cc2)C1=O)[C@](O)(Cn1cncn1)c1ccc(F)cc1F` [Compound 8, 1-[(1R,2R)-2-(2,4-difluorophenyl)-2-hydroxy-1-methyl-3-(1H-1,2,4-triazol-1-yl)propyl]-3-[4-(2,2,3,3,3-pentafluoropropoxy)phenyl]-2-imidazolidinone] returned an ED50 in test [1] (setting [10]) of 2 mg/kg. Besides, in test [5] (setting [12]), the zone of inhibition at 1000 µg/mL came to 28 mm.

In turn, `C[C@@H](N1CC(=O)N(c2ccc(OC(F)(F)C(F)F)cc2)CC1=O)[C@](O)(Cn1cncn1)c1ccc(F)cc1F` [Compound 12, 1-[(1R,2R)-2-(2,4-difluorophenyl)-2-hydroxy-1-methyl-3-(1H-1,2,4-triazol-1-yl)propyl]-4-[4-(1,1,2,2-tetrafluoroethoxy)phenyl]-2,5-peperazinedione] came in with an ED50 in [1] (setting [13]) of 2.8 mg/kg.

By ED50 is commonly meant the dose at which the effect has come halfway, by size or by number of responders. High values mean a need for a large dose, low ones an effect at a small dose. As usually defined, the zone of inhibition is the size of the clear area around the sample on an inoculated plate.
